This note sets out measurements from US20240024515A1, “COMBINATION TREATMENT” (priority 2022, published 2024).

Where two headings read alike, the source gives them in different places.

Assay [1] deals with CFTR. It counts as cell-based, human. Conditions: no LV. The protocol:
To analyse the functionality of rSIV.F/HN-CFTR-expressed channels, CFTR-mediated chloride current was measured in an Ussing chamber using rSIV.F/HN-CFTR (vGM058) transduced ALI cultures. First, sodium channels (ENaC) were blocked using amiloride, followed by stimulation of CFTR using forskolin and the change in short circuit current (Δlsc) was calculated (both peak and plateau values). In some experiments, ivacaftor, a small molecule CFTR potentiator which increases channel open probability, was added for additional stimulation of CFTR current. Finally, the chloride current was blocked with CFTR-Inhibitor 172 (FIG. 3D).
To compare the functionality of vGM058 and vGM244, CFTR-mediated chloride current was measured in an Ussing chamber using class II ALI cultures transduced with both vGM058 and vGM244.
To analyse the functionality of rSIV.F/HN-CFTR-expressed channels, CFTR-mediated chloride current was measured in an Ussing chamber using rSIV.F/HN-CFTR (vGM244) transduced class II ALI cultures (Table 3).

Assay [2] has as its target CFTR (Homo sapiens, UniProt P13569). The format is cell-based. As to conditions: no LV.
[3] abbreviates: Table 1, Class II F508del/F508del ALI, vGM058 study.
Where [4] appears, read: Table 3, Class II F508del/F508del ALI, vGM244 study.
Where [5] appears, read: Table 2, Class I CFTR KO ALI, vGM058 study.
Where [6] appears, read: Table 4, Class I CFTR KO ALI, vGM244 study.

Sequence of CFTR (Homo sapiens, UniProt P13569) (P13569 whole entry): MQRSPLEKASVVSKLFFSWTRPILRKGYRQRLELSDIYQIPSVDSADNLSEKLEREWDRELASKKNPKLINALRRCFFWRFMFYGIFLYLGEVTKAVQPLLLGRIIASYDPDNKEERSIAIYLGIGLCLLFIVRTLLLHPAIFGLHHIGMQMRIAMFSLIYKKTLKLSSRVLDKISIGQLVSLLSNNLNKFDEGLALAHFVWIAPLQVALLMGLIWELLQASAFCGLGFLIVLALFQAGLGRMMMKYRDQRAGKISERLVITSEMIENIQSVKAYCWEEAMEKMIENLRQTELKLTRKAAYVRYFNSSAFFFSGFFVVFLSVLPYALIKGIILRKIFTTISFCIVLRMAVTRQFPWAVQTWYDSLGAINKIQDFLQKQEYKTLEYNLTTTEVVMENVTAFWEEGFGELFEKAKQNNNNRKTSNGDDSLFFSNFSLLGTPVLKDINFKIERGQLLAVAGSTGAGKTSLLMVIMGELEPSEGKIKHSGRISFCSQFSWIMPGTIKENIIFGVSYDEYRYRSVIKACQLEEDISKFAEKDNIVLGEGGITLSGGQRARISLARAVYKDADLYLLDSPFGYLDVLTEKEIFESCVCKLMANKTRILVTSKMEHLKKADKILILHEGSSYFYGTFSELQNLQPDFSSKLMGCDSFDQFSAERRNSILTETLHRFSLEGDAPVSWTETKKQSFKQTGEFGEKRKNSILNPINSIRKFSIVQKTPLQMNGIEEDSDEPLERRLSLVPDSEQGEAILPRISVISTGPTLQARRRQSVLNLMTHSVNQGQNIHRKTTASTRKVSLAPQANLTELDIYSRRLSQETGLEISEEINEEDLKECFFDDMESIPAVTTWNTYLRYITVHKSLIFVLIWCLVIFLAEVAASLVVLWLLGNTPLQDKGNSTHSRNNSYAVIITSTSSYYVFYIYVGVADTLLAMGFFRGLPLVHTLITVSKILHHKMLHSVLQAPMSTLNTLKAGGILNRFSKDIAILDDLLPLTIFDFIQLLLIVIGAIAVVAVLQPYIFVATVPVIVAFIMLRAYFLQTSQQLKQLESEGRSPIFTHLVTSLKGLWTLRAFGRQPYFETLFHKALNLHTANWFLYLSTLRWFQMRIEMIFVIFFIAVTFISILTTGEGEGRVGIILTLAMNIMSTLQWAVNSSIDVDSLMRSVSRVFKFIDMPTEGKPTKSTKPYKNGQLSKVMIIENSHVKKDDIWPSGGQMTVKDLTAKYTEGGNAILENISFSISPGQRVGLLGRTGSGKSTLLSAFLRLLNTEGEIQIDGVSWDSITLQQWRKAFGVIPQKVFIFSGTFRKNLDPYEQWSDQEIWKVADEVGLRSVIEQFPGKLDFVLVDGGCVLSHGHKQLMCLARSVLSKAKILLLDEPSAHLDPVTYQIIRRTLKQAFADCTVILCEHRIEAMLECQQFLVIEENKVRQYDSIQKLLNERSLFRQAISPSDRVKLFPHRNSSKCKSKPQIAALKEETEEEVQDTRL

As for `CC(C)(C)c1cc(C(C)(C)C)c(NC(=O)c2c[nH]c3ccccc3c2=O)cc1O` [Iva, ivacaftor], in the assay with CFTR [1] (setting [3]), the ΔCFTR-inh172peak is recorded as −2.1 ± 0.3, the ΔCFTR-inh172plateau is reported as −2.1 ± 0.3, the ΔFskpeak is given as −0.1 ± 0.3 and the ΔFskplateau is reported as −0.1 ± 0.3. In the assay on CFTR [1] (setting [4]), the ΔCFTR-inh172peak was −1.6 ± 0.1, the ΔCFTR-inh172plateau is −1.6 ± 0.1, the ΔFskpeak turned out to be 1.0 ± 0.3 and the ΔFskplateau is listed as 1.0 ± 0.3. Moreover, at CFTR [2] (setting [5]), the ΔCFTR-inh172peak is −3.0 ± 0.2, the ΔCFTR-inh172plateau is reported as −3.0 ± 0.2, the ΔFskpeak is on record as −1.9 ± 0.1 and the ΔFskplateau was −1.9 ± 0.1. On CFTR [2] (setting [6]), the ΔCFTR-inh172peak is −0.2 ± 0.2, the ΔCFTR-inh172plateau was −0.2 ± 0.2, the ΔFskpeak is given as −0.7 ± 0.2 and the ΔFskplateau is listed as −0.7 ± 0.2.
